According to ChEMBL document CHEMBL4507268 (2021):

What was measured:
Details in all cases: Compound concentration 1000.0 nM
[1] = target: T1, Aurora kinase C (Homo sapiens) (UniProt Q9UQB9)
T1 sequence (whole entry): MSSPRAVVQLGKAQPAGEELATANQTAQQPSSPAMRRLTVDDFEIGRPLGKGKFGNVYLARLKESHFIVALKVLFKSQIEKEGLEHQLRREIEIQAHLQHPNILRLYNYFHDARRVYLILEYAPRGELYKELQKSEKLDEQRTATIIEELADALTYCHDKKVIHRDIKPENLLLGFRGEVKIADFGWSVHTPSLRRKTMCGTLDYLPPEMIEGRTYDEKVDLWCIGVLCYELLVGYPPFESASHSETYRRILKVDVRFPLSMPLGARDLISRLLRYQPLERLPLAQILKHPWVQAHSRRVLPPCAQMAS

[2] = target: T2, Cyclin-dependent kinase-like 2 (Homo sapiens) (UniProt Q92772)
T2 sequence (whole entry): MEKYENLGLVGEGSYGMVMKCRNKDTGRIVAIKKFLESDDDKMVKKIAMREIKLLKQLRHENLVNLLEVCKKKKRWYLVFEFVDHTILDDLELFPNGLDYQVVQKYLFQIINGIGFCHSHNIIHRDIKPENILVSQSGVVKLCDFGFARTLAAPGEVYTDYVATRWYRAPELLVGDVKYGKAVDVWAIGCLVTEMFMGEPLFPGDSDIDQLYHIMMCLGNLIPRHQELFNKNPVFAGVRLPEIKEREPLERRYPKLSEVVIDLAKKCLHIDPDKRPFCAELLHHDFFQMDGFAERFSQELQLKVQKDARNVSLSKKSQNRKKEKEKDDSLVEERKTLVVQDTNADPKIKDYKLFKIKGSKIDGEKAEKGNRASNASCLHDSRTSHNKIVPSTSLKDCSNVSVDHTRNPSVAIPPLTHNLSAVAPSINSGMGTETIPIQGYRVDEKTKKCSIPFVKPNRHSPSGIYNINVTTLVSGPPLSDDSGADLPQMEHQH

[3] = target: T3, Ephrin type-B receptor 2 (Homo sapiens) (UniProt P29323)
T3 sequence (whole entry): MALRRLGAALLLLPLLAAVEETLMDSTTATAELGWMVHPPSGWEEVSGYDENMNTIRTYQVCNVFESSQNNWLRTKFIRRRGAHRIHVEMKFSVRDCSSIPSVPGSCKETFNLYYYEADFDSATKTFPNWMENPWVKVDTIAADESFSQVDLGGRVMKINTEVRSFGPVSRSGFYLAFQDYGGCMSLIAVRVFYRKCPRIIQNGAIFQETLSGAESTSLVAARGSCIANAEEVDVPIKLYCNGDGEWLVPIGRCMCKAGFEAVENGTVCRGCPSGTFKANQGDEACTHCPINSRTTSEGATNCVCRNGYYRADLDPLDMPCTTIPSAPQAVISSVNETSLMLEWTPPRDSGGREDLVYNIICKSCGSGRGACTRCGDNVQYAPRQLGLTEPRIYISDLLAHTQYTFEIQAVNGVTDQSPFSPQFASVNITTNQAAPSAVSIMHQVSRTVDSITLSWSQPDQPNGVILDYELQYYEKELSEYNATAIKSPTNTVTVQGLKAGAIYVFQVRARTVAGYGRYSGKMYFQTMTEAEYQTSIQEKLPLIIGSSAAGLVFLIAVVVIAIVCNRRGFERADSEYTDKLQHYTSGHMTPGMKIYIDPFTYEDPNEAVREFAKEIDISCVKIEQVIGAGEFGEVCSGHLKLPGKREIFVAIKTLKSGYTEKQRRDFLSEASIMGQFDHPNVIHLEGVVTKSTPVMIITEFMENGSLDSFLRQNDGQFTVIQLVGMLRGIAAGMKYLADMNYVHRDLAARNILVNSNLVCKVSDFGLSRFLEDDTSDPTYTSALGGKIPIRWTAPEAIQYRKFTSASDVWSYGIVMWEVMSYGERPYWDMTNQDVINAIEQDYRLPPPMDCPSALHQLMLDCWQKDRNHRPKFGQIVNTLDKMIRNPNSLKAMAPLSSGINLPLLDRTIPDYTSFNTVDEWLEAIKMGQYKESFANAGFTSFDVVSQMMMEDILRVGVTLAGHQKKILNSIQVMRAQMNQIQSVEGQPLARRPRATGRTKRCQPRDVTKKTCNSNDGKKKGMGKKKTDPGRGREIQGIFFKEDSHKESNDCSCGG

[4] = target: Tyrosine-protein kinase HCK (Homo sapiens) (UniProt P08631)
[5] = target: T4, Inhibitor of nuclear factor kappa-B kinase subunit beta (Homo sapiens) (UniProt O14920)
T4 sequence (whole entry): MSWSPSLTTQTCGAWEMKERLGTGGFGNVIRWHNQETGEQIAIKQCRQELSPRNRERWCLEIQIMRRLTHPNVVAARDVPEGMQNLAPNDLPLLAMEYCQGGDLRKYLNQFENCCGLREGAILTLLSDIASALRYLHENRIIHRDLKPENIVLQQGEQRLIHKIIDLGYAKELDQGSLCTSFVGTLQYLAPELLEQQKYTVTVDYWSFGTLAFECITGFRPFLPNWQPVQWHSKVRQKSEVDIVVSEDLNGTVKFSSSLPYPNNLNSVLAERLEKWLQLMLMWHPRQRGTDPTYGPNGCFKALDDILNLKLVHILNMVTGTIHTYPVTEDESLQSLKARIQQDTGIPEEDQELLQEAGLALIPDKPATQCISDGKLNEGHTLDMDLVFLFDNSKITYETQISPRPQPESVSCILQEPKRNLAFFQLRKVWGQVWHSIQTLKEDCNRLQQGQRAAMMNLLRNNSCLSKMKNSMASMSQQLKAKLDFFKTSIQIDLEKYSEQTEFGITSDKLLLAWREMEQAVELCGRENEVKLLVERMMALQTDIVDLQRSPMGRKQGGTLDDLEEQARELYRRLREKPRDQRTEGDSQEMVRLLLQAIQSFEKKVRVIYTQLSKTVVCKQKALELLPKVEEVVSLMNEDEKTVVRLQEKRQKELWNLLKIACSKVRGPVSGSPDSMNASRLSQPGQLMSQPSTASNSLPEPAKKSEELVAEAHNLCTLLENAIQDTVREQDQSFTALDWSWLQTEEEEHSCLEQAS

[6] = target: Serine/threonine-protein kinase MARK2 (Homo sapiens) (UniProt Q7KZI7)
[7] = target: Serine/threonine-protein kinase MRCK alpha (Homo sapiens) (UniProt Q5VT25)
[8] = target: Uncharacterized serine/threonine-protein kinase SBK3 (Homo sapiens) (UniProt P0C264)
[9] = target: NT-3 growth factor receptor (Homo sapiens) (UniProt Q16288)
[10] = target: Serine/threonine-protein kinase 32A (Homo sapiens) (UniProt Q8WU08)

Measured: residual activity

Sequence of Serine/threonine-protein kinase MRCK alpha (Homo sapiens) (Q5VT25 whole entry): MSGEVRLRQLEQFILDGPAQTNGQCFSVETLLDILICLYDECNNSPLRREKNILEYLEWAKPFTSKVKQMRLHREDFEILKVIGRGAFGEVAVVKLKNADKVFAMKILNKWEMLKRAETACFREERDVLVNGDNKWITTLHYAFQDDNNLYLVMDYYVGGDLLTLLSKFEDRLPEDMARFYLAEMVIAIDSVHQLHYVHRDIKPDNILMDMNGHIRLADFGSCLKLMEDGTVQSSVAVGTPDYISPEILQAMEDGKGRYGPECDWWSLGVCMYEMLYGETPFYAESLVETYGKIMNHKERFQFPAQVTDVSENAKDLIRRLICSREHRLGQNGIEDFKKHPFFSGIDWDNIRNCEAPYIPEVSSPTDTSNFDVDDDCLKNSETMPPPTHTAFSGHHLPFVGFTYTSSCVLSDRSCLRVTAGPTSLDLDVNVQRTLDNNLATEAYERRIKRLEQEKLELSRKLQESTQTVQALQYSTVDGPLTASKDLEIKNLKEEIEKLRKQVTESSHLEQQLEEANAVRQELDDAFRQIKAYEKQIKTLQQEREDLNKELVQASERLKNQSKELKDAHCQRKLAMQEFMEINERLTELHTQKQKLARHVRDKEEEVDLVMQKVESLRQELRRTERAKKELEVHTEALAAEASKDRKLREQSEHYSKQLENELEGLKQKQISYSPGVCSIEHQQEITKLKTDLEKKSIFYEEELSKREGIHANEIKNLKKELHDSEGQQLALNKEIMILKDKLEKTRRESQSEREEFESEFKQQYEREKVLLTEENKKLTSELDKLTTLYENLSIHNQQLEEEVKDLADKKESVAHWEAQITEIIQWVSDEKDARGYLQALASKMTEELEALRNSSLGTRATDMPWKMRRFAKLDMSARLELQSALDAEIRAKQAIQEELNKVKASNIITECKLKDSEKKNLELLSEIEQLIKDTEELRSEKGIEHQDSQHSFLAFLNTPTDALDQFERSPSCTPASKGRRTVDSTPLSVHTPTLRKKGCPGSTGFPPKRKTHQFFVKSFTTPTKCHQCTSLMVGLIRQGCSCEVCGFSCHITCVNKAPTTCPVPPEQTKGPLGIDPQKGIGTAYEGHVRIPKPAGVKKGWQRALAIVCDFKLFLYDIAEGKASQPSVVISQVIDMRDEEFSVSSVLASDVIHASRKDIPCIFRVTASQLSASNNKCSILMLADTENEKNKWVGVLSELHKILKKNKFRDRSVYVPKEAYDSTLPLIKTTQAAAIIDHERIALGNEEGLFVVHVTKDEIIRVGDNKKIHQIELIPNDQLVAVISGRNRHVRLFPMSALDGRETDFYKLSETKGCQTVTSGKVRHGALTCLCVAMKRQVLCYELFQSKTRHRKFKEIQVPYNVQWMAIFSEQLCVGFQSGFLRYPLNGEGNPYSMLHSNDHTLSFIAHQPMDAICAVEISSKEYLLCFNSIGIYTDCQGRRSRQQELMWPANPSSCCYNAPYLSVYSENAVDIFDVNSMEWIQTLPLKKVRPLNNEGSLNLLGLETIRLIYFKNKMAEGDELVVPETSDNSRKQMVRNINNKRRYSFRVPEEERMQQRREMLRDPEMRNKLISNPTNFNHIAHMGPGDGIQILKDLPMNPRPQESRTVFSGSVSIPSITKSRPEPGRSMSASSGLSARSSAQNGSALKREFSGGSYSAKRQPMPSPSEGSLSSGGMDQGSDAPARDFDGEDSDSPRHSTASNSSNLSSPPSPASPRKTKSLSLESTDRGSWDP
Sequence of Tyrosine-protein kinase HCK (Homo sapiens) (P08631 2-526 limits assumed): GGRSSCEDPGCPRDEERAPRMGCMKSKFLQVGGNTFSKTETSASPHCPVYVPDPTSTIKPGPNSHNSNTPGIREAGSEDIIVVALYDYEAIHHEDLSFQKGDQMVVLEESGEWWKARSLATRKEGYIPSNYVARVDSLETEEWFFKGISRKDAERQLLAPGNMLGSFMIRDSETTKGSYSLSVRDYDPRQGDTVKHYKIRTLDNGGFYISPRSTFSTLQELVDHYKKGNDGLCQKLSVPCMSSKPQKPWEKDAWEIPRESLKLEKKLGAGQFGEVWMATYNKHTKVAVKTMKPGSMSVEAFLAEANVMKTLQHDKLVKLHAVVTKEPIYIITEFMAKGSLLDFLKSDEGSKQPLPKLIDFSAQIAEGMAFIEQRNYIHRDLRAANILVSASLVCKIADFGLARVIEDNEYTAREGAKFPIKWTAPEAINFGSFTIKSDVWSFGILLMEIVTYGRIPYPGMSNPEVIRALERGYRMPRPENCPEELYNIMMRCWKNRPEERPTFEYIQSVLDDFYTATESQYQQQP
Sequence of Serine/threonine-protein kinase MARK2 (Homo sapiens) (Q7KZI7 whole entry): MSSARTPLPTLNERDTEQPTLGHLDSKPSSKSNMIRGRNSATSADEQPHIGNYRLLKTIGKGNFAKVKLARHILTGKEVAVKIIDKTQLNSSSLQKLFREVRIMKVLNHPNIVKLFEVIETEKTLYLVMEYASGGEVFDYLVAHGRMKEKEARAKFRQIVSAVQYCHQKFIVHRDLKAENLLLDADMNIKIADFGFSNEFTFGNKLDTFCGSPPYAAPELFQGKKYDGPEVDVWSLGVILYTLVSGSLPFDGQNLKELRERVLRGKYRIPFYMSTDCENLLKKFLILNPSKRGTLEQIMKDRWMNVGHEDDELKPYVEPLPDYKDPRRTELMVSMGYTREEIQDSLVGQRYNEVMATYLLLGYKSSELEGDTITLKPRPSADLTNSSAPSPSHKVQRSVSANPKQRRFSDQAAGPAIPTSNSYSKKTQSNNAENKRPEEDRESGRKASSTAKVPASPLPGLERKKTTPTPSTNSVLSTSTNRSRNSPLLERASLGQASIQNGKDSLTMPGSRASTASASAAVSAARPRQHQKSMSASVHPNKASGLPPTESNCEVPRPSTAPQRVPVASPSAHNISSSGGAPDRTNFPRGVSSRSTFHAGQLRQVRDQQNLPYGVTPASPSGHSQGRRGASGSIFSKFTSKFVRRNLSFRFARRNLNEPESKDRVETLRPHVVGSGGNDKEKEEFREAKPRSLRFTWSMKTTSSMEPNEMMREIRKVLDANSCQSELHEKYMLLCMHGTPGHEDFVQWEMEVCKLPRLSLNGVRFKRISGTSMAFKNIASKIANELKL
Sequence of NT-3 growth factor receptor (Homo sapiens) (Q16288 32-839 limits assumed): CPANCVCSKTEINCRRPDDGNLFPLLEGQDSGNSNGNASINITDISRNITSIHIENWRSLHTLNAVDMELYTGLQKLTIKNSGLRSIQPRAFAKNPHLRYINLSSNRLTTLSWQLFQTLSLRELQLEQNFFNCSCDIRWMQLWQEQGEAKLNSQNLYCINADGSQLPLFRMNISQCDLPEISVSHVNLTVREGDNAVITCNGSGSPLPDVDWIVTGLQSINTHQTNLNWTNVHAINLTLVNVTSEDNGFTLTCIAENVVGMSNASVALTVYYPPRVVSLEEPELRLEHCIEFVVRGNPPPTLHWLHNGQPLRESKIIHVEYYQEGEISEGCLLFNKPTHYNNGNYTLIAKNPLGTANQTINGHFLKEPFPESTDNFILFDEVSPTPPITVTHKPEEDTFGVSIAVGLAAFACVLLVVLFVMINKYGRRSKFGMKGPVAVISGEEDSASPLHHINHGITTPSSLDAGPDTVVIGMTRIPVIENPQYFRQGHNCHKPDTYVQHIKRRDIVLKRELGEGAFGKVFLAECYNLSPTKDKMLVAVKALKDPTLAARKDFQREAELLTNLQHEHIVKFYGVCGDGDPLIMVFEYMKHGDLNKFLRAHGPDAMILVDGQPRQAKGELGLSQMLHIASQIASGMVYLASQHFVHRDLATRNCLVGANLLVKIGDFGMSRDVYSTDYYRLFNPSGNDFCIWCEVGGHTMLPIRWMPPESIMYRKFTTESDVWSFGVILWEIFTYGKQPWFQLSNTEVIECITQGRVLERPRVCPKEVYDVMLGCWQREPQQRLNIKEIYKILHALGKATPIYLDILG
Sequence of Uncharacterized serine/threonine-protein kinase SBK3 (Homo sapiens) (P0C264 whole entry): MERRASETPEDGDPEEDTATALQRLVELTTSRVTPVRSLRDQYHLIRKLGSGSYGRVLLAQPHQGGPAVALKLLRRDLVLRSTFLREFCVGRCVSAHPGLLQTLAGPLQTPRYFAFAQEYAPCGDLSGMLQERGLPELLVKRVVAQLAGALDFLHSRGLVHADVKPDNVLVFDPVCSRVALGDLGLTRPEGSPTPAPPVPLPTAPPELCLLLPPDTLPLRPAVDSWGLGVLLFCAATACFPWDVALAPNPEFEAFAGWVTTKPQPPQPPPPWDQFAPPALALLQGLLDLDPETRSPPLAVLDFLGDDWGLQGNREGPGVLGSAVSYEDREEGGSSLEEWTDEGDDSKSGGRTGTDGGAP
Sequence of Serine/threonine-protein kinase 32A (Homo sapiens) (Q8WU08 whole entry): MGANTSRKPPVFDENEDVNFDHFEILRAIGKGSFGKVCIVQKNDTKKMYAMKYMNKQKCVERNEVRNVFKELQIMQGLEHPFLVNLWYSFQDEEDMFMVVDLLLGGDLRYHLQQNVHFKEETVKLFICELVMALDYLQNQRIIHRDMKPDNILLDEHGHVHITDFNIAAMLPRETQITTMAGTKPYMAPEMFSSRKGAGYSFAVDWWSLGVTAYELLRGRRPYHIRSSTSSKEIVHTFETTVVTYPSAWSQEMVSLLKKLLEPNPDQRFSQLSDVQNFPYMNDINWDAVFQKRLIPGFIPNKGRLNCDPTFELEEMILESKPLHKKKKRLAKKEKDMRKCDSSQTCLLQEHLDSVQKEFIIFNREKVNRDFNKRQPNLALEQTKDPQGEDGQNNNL

Cc1nc(C2CCN(C(=O)c3ccc(OC(F)(F)F)cc3N)CC2)c2ncc(N3CCN(C)CC3)cc2n1 [BAY-693]
inactive: [1] 100% | [2] 100% | [3] 100% | [4] 95% | [5] 78% | [6] 100% | [7] 99% | [8] 77% | [9] 97% | [10] 86%

CN1CCN(c2cnc3c(C4CCN(C(=O)c5ccc(OC(F)(F)F)cc5N)CC4)ncnc3c2)CC1 [BAY-885]
inactive: [1] 67% | [2] 100% | [3] 78% | [4] 95% | [5] 100% | [6] 100% | [7] 100% | [8] 72% | [9] 100% | [10] 94%
